Laboratory results taken from article PMC13245873, “Uridine cytidine kinases govern molnupiravir bioactivation and anti-SARS-CoV-2 activity” (PLOS Pathogens, 2026).

Columns and labels:
UCK1 [1] = target: T1, UCK1 (Homo sapiens, UniProt Q9HA47); assay: X-ray co-crystal structure ([…] Å, with NHC); type: binding
T1 construct: amino acids 21–235, N-terminal His tag
T1 sequence (Q9HA47 21-235): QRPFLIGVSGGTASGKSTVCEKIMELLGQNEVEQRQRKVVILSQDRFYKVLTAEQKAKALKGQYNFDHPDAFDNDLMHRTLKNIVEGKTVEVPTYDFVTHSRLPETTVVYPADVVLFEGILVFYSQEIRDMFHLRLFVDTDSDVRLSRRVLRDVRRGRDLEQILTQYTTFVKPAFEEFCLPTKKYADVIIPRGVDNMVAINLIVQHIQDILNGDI

UCK1 [2] = target: T2, UCK1 (Homo sapiens, UniProt Q9HA47); assay: ADP-Glo-coupled kinase kinetics; DSF dose-response; type: biochemical
T2 construct: recombinant, N-terminal His tag
T2 sequence (Q9HA47 1-277): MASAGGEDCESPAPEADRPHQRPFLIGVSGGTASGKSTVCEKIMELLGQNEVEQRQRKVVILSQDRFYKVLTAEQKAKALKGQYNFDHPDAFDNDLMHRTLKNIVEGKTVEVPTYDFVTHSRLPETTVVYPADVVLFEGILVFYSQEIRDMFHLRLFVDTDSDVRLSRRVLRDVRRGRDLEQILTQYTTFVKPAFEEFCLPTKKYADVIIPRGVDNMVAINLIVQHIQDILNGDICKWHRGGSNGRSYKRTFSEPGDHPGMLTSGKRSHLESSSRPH

UCK2 = target: T3, UCK2 (Homo sapiens, UniProt Q9BZX2); assay: ADP-Glo-coupled kinase kinetics (kcat/Km); DSF dose-response; type: biochemical
T3 construct: recombinant, C-terminal His tag
T3 sequence (Q9BZX2 2-261): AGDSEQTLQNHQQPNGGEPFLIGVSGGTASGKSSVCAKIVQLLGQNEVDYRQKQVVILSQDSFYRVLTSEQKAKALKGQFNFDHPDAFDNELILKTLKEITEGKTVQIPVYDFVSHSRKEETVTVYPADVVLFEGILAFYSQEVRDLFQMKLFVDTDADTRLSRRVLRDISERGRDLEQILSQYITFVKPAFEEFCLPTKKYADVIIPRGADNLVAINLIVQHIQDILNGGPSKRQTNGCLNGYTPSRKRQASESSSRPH

[3] = target: the molecule itself; assay: SEC; gel filtration of purified recombinant UCK1 (amino acids 21–235) on a Superdex200 increase 10/300 GL column; single peak
purified protein = substrate: O=c1nc(NO)ccn1[C@@H]1O[C@H](CO)[C@@H](O)[C@H]1O; assay: purified protein; type: binding, Homo sapiens; settings: AMPPNP (ATP site) and Mg2+ active site; π-stacking with F86 and F117; H-bonds with D65, D87, Y115, H120, R160 and the ATP gamma-phosphate
[4] = substrate: O=c1nc(NO)ccn1[C@@H]1O[C@H](CO)[C@@H](O)[C@H]1O; assay: ADP-Glo-coupled kinase kinetics (Km); DSF dose-response; type: biochemical, Homo sapiens; settings: ATP, Mg2+
Text: ADP-Glo-coupled kinase kinetics (Km); DSF dose-response on UCK2 | NHC was a substrate for both UCK1 and UCK2

## Nc1ncnc2c1ncn2[C@@H]1O[C@H](CO[P@](=O)(O)O[P@](=O)(O)NP(=O)(O)O)[C@@H](O)[C@H]1O [AMPPNP, adenosine 5’-(β,γ-imido)triphosphate]
UCK1 [1]
  X-ray co-crystal structure (2.40 Å, with NHC): AMPPNP binds in a pocket closer to the surface, and is positioned by H-bonds between the phosphate group and residues

## Nc1ccn([C@@H]2O[C@H](CO)[C@@H](O)[C@H]2O)c(=O)n1 [C, cytidine]
UCK1 [2]
  ADP-Glo-coupled kinase kinetics; DSF dose-response: Using cytidine as the substrate, the ADP-Glo-coupled kinase activity assay produced kinetic parameters
UCK2
  ADP-Glo-coupled kinase kinetics (kcat/Km); DSF dose-response: 56666.7 M⁻¹ s⁻¹

B1: human UCK1 construct (amino acids 21–235) (enzyme, UniProt Q9HA47 21-235, looked up)
chain: QRPFLIGVSGGTASGKSTVCEKIMELLGQNEVEQRQRKVVILSQDRFYKVLTAEQKAKALKGQYNFDHPDAFDNDLMHRTLKNIVEGKTVEVPTYDFVTHSRLPETTVVYPADVVLFEGILVFYSQEIRDMFHLRLFVDTDSDVRLSRRVLRDVRRGRDLEQILTQYTTFVKPAFEEFCLPTKKYADVIIPRGVDNMVAINLIVQHIQDILNGDI
notes: uridine cytidine kinase 1 (UCK1), human, residues 21-235; cDNA optimized for expression in E. coli, in pET24a(+); Tetramer by gel filtration and in the crystal's asymmetric unit; also called hUCK1; uridine cytidine kinase 1; source: E. coli BL21 (DE3), purified (IMAC, SEC)
[3]
  stoichiometry N: 4
Purified protein
  Km: 1140 ± 320 µM

B2: UCK2 (Homo sapiens) (protein)
chain: AGDSEQTLQNHQQPNGGEPFLIGVSGGTASGKSSVCAKIVQLLGQNEVDYRQKQVVILSQDSFYRVLTSEQKAKALKGQFNFDHPDAFDNELILKTLKEITEGKTVQIPVYDFVSHSRKEETVTVYPADVVLFEGILAFYSQEVRDLFQMKLFVDTDADTRLSRRVLRDISERGRDLEQILSQYITFVKPAFEEFCLPTKKYADVIIPRGADNLVAINLIVQHIQDILNGGPSKRQTNGCLNGYTPSRKRQASESSSRPH
notes: recombinant, C-terminal His tag
[4]
  Km: 260 ± 70 µM
